Target: T1, human SCD1 enzyme (Homo sapiens, UniProt O00767)
T1 sequence (O00767 1-359): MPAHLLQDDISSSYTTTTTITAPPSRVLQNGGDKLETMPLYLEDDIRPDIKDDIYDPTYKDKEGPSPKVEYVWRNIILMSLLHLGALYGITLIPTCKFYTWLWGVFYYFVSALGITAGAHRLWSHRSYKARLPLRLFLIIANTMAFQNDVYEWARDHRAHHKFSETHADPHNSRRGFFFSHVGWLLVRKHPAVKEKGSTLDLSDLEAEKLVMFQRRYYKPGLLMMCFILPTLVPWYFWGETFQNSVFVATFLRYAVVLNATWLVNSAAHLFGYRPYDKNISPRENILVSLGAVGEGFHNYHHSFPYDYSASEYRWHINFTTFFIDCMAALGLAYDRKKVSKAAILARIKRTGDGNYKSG
Assay: Tritiated water release assay (conversion of radiolabeled stearoyl-CoA to oleoyl-CoA)
Assay type: biochemical
Conditions: 10 μM concentration of test compounds; microsomal SCD1, 3H stearoyl CoA, 37° C. 30 minutes; percent of control reaction; read-out: % Inhibition
Description: The in-vitro activity of the compounds of the present invention against stearoyl coenzyme desaturase was determined by following conversion of radiolabeled-stearoyl-CoA to oleoyl-CoA using human SCD1 enzyme using a previously published assay procedure with some modifications (Barbara R Talamo and Konrad Bloch, Analytical Biochemistry, 1969, 29, 300-304). This assay protocol is only illustrative and is not meant to limit to the scope of the present invention.
In this assay the microsomal SCD1 enzyme desaturates its substrate, Stearoyl CoA (purchased from American Radiochemicals Ltd.) which is tritiated at C9 and C10 positions. Test compounds were dissolved in dimethylsulfoxide and tested at 10 μM final concentration. Before substrate addition, the test compound or standard reference compound (conjugated linoleic acid at 100 μM final concentration) were pre-incubated in reaction buffer with the enzyme for 10 minutes at 30° C. with shaking. Reaction buffer was prepared as described in literature (Obukowicz et al. JPET, 1998, 287, 157-166) except that the MgCl2, ATP (purchased from Sigma) and CoA (purchased from Sigma) concentrations were changed to 4.9 mM, 7.2 mM and 0.54 mM respectively. The desaturation reaction was initiated by addition of 0.5 μCi of ^3H stearoyl CoA and incubated at 37° C. for 30 minutes with shaking. A control reaction was set without any test compound/reference inhibitor to capture maximum enzymatic activity in the assay. Inhibition of enzyme activity was calculated as a percent of this control reaction giving maximum catalysis and the results are given in Table 5.
Table 5: Tritiated water release assay at 10 μM substrate concentration *Conjugated Linoleic acid was used as a reference standard

Structure (SMILES)	inhibition at 10 µM
CC(=O)NCC#Cc1ccc(N2CCN(C(=O)c3ccccc3C(F)(F)F)CC2)nc1 [Example 15, N1-(3-{6-[4-(2-Trifluoromethylbenzoyl)piperazino]-3-pyridyl}-2-propynyl)acetamide]	49%
O=C(c1cc(Cl)ccc1Cl)N1CCN(c2ccc(C#Cc3cccc(O)c3)cn2)CC1 [Example 28]	98%
CCOC(=O)COc1cccc(C#Cc2ccc(N3CCN(C(=O)c4ccccc4C(F)(F)F)CC3)nc2)c1 [Example 26, Ethyl-2-[3-(2-{6-[4-(2-trifluoromethylbenzoyl)piperazino]-3-pyridyl}-1-ethynyl)-phenoxy]acetate]	27%
CCOC(=O)c1cc(C#Cc2ccc(N3CCN(C(=O)c4ccccc4C(F)(F)F)CC3)nc2)ccc1OC(C)=O [Example 34]	29%
O=C(c1ccccc1C(F)(F)F)N1CCN(c2ccc(C#Cc3ccc(C(F)(F)F)cc3)nn2)CC1 [Example 41, 2-Trifluoromethylphenyl-4-{6-[2-(4-trifluoromethylphenyl)-1-ethynyl]-3-pyridazinyl}-piperazinomethanone]	93%
Oc1ccc(C#Cc2ccc(N3CCC(Oc4ccccc4F)CC3)nn2)cc1 [Example 76, 4-(2-{6-[4-(2-Fluorophenoxy)piperidino]-3-pyridazinyl}-1-ethynyl)phenol]	100%
CC(=O)Oc1ccc(C#Cc2ccc(N3CCC(O)(Cc4cc(Cl)ccc4Cl)CC3)nn2)cc1 [Example 64]	87%
O=C(c1ccccc1C(F)(F)F)N1CCN(c2ccc(C#Cc3ccc(F)c(F)c3)nn2)CC1 [Example 40, 4-{6-[2-(3,4-Difluorophenyl)-1-ethynyl]-3-pyridazinyl}piperazino-2(trifluoromethyl)-phenylmethanone]	81%
Fc1ccc(OCC#Cc2ccc(N3CCN(c4ccc(C(F)(F)F)cn4)CC3)nc2)cc1 [Example 14, 1-{5-[3-(4-Fluorophenoxy)prop-1-yn-1-yl]-2-pyridyl}-4-(5-trifluoromethylpyridin-2-yl)piperazine]	35%
CC(C)CCn1ccnc1C#Cc1ccc(N2CCN(C(=O)c3ccccc3C(F)(F)F)CC2)nc1 [Example 48]	22%
O=C(c1ccccc1C(F)(F)F)N1CCN(c2ccc(C#Cc3cccc(O)c3)nn2)CC1 [Example 38, 4-{6-[2-(3-Hydroxyphenyl)-1-ethynyl]-3-pyridazinyl}piperazino-2-trifluoromethyl-phenylmethanone]	99%
Fc1ccccc1CN1CCN(c2ccc(C#CC3CCCCO3)nn2)CC1 (stereo not drawn) [Example 58]	6%
CC(C)(C)C#Cc1ccc(N2CCN(C(=O)c3cc(Cl)ccc3Cl)CC2)nc1 [Example 19, 2,5-Dichlorophenyl-4-[5-(3,3-dimethyl-1-butynyl)-2-pyridyl]piperazinomethanone]	14%
CCCCS(=O)(=O)NCC#Cc1ccc(N2CCN(C(=O)c3ccccc3C(F)(F)F)CC2)nc1 [Example 16, N1-(3-{6-[4-(2-Trifluoromethylbenzoyl)piperazino]-3-pyridyl}-2-propynyl)-1-butane sulfonamide]	42%
Oc1cccc(C#Cc2ccc(N3CCN(CC4CC4)CC3)nn2)c1 [Example 55, 3-({6-[4-(Cyclopropylmethyl)piperazin-1-yl]pyridazin-3-yl}ethynyl)phenol]	60%
O=C(c1ccccc1C(F)(F)F)N1CCN(c2ccc(C#Cc3cccc(O)c3)cn2)CC1 [Example 25, 4-{5-[2-(3-Hydroxyphenyl)-1-ethynyl]-2-pyridyl}piperazino-2-trifluoromethylphenyl methanone]	97%
O=C(c1ccccc1C(F)(F)F)N1CCN(c2ccc(C#CCOc3ccc(O)cc3)cn2)CC1 [Example 13]	92%
COc1cccc(C#Cc2ccc(N3CCN(C(=O)c4cc(Cl)ccc4Cl)CC3)nc2)c1 [Example 31, 2,5-Dichlorophenyl-4-{5-[2-(3-methoxyphenyl)-1-ethynyl]-2-pyridyl}piperazino-methanone]	21%
O=C(c1ccccc1C(F)(F)F)N1CCN(c2ccc(C#Cc3ccc(O)cc3)cn2)CC1 [Example 23, 4-{5-[2-(4-Hydroxyphenyl)-1-ethynyl]-2-pyridyl}piperazino-2-trifluoromethylphenyl methanone]	91%
CC(=O)Oc1ccc(C#Cc2cnc(N3CCN(C(=O)c4ccccc4C(F)(F)F)CC3)s2)cc1 [Example 53, 4-(2-{2-[4-(2-Trifluoromethylbenzoyl)piperazino]-1,3-thiazol-5-yl}-1-ethynyl)phenyl acetate]	47%
O=C(c1ccccc1C(F)(F)F)N1CCN(c2ccc(C#Cc3ccc(F)cc3)nn2)CC1 [Example 39]	75%
CC(=O)Oc1ccccc1C#Cc1ccc(N2CCN(C(=O)c3ccccc3C(F)(F)F)CC2)nc1 [Example 29]	24%
O=C(c1ccccc1C(F)(F)F)N1CCN(c2ccc(C#Cc3ccccc3)cn2)CC1 [Example 20, 4-[5-(2-Phenyl-1-ethynyl)-2-pyridyl]piperazino-2-trifluoromethylphenylmethanone]	38%
O=C(c1ccccc1C(F)(F)F)N1CCN(c2ccc(C#Cc3ccc(O)c(F)c3)cn2)CC1 [Example 24, 1-{5-[(3-Fluoro-4-hydroxyphenyl)ethynyl]-2-pyridyl}piperazin-4-yl-(2-trifluoromethylphenyl)methanone]	79%
O=C(c1ccccc1C(F)(F)F)N1CCN(c2ccc(C#CC(O)C34CC5CC(CC(C5)C3)C4)cn2)CC1 (stereo not drawn) [Example 7, 4-[5-{3-Hydroxy-3-(1-adamantyl)-1-propynyl}-2-pyridyl]piperazino-2-trifluoromethyl-phenylmethanone]	0.35%
O=C(c1ccccc1C(F)(F)F)N1CCN(c2ccc(C#CCOc3ccc(F)cc3)cn2)CC1 [Example 11, 4-[5-(3-(4-Fluorophenoxy)-1-propynyl)-2-pyridyl]piperazino-2-trifluoromethylphenyl-methanone]	63%
O=C(c1cc(Cl)ccc1Cl)N1CCN(c2ccc(C#Cc3cnccn3)cn2)CC1 [Example 46]	29%

Other lines, results leading:

inhibition at 10 µM	Structure (SMILES)
95%	N#Cc1ccccc1OC1CCN(c2ccc(C#Cc3cccc(O)c3)nn2)CC1 [Example 88]
93%	Oc1ccc(C#Cc2ccc(N3CCC(O)(Cc4cc(Cl)ccc4Cl)CC3)nn2)cc1 [Example 65, 1-{6-[(4-Hydroxyphenyl)ethynyl]pyridazin-3-yl}-4-(2,5-dichlorobenzyl)piperidin-4-ol]
37%	Fc1ccccc1OC1CCN(c2ccc(C#Cc3ccc(OCCN4CCOCC4)cc3)nn2)CC1 [Example 79]
27%	CC(C)(C)C(=O)Oc1cccc(C#Cc2ccc(N3CCC(Oc4ccccc4F)CC3)nn2)c1 [Example 87, 3-[{6-[4-(2-Fluorophenoxy)piperidin-1-yl]pyridazin-3-yl}ethynyl]phenyl pivalate]
12%	COc1c(F)ccc(C#Cc2ccc(N3CCC(Oc4ccccc4F)CC3)nn2)c1F [Example 94, 3-[(2,4-Difluoro-3-methoxyphenyl)ethynyl]-6-[4-(2-fluorophenoxy)piperidin-1-yl]pyridazine]
38%	Fc1ccccc1OC1CCN(c2ccc(C#Cc3ccc4c(c3)OCO4)cn2)CC1 [Example 72]
96%	Oc1ccc(C#Cc2ccc(N3CC(Oc4ccccc4F)C3)nn2)cc1 [Example 67]
44%	[O-][n+]1cccc(C#Cc2ccc(N3CCC(Oc4ccccc4F)CC3)nc2)c1 [Example 74]
95%	Oc1ccc(C#Cc2ccc(N3CCC(Oc4ccccc4F)C3)nn2)cc1 (stereo in doubt) [Example 71, 4-[{6-[(3S)-3-(2-Fluorophenoxy)azolan-1-yl]pyridazin-3-yl}ethynyl]phenol]
88%	CC(=O)Oc1ccc(C#Cc2ccc(N3CCC(Oc4ccccc4F)CC3)nn2)cc1 [Example 75, 4-[{6-[4-(2-Fluorophenoxy)piperidin-1-yl]pyridazin-3-yl}ethynyl]phenyl acetate]
96%	CC(=O)Oc1ccc(C#Cc2ccc(N3CCC(Oc4ccccc4F)C3)nn2)cc1 (stereo in doubt) [Example 70, 4-[{6-[(3S)-3-(2-Fluorophenoxy)azolan-1-yl]pyridazin-3-yl}ethynyl]phenyl acetate]
97%	CC(=O)Oc1ccc(C#Cc2ccc(N3CCC(Oc4cc(Cl)ccc4Cl)CC3)nn2)cc1 [Example 92, 4-[{6-[4-(2,5-Dichlorophenoxy)piperidin-1-yl]pyridazin-3-yl}ethynyl]phenyl acetate]
